{"source": "patent EP4790048A1", "about": "“S1PR4 REGULATOR COMPOUND FOR AUTOIMMUNE DISEASE TREATMENT AND APPLICATION THEREOF” (Shengyuan Zetong (Shanghai) Pharmaceutical Co., Ltd, priority 2023, dated 2025)", "key": {"BALB/c mice [1]": {"tested_on": "BALB/c mice", "experiment": "DSS-induced chronic ulcerative colitis in mice (Example 6)", "assay_type": "in vivo", "excerpt": "BALB/c mice were acclimatized for 7 days before the experiment. From Day 7 to Day 50 of the experiment, the mice were weighed daily and their blood and stool conditions were observed, scored and recorded according to the following table (Table 1). After random grouping, all groups except the Control group were given free access to 2-3% DSS solution for modeling from Day 7 to Day 14, while the Control group received normal drinking water during the same period. One cycle lasted 14 days and was repeated 3 times. Re-grouping was performed at the start of the final cycle to initiate drug administration. The Control group and Model group received no drug but the same solvent. The other groups were intragastrically administered 1 mg/kg, 3 mg/kg, 9 mg/kg, and SASP 500 mg/kg respectively. On Day 45, blood and colon samples were collected, colon length was measured, and a 1-2 cm colon segment was fixed with formaldehyde.\n(§1) • BALB/c mice, male, 20-22 g • Dextran sulfate sodium MW: 36,000-50,000 (DSS) • 30 1 mg/kg, 3 mg/kg, 9 mg/kg, SASP (500 mg/kg) indicators were observed.\n(§2) (1) Clinical Symptom Score: The mice were weighed daily and their blood and stool were observed during the experiment for DAI scoring, which was graded and recorded according to the following table (Table 1).\n(§3) (2) After the experiment, the colon was removed, its length measured and weight recorded. The colon-to-body weight index (colon weight/body weight × 100%) and colon swelling rate (colon weight/length × 100%) were calculated.\n(§4) Colonic tissue approximately 1 cm from the anal margin (0.5 cm) and ileocecal region tissue were collected for histopathological examination. After H&E staining, the tissues were scored under single-blind conditions to evaluate the level of distal colon inflammation and tissue damage; scoring was performed according to the Ameho criteria and calculated as follows: • Score 0: No abnormal findings in the texture. • Score 1: Mild inflammatory infiltration of the mucosa and/or submucosa (mixed with neutrophils), submucosal edema, punctate mucosal erosion, accompanied by capillary proliferation. The muscularis mucosae is intact. • Score 2: Changes of Score 1 account for more than 50%. • Score 3: Obvious inflammatory infiltration and edema (neutrophils are often predominant); ulcers usually penetrate the muscularis mucosae to reach the submucosa. There is little inflammatory cell infiltration in the muscularis propria and no muscle necrosis. • Score 4: Changes of Score 3 account for more than 50%. • Score 5: Large confluent ulcers with coagulative necrosis, massive neutrophil infiltration at the margins and few monocytes. Necrotic tissue penetrates the muscularis propria. • Score 6: Changes of Score 5 account for more than 50% of the specimen.\nThe fence function of Occludin separates the apical and basolateral sides of the epithelial cell plasma membrane, restricting the free flow of lipids on the cell membrane, facilitating the formation of cell polarity, maintaining the impermeability and rigidity of the intestinal mucosa, and preventing the entry of pathogenic microorganisms. The barrier function of Occludin can regulate the transport of small molecules and maintain tissue homeostasis. The expression and distribution of related proteins are detected by immunohistochemistry.\nDuring modeling, the body weight of mice in the control group increased steadily. In the model group, during the first modeling period, mice were given 3% DSS drinking water ad libitum for 7 days, followed by tap water ad libitum for 7 days. On Day 4 of modeling, the body weight of mice began to decrease generally, reaching the lowest point on Day 8, and then started to rise. During the second modeling period, mice were given 2% DSS drinking water ad libitum for 7 days, followed by tap water ad libitum for 7 days. […]"}, "BALB/c mice [2]": {"tested_on": "BALB/c mice", "experiment": "DSS-induced acute ulcerative colitis in mice (Example 6)", "assay_type": "in vivo", "conditions": "for survival rate: 8 mice, model group 75%", "protocol": "From Day 0 to Day 14 of the experiment, the mice were weighed daily and their blood and stool conditions were observed, scored and recorded according to the following table (Table 1). Random grouping was performed on Day 1, and modeling was conducted from Day 1 to Day 7. All groups except the Control group were given 3.5% DSS water daily. Re-grouping was performed on Day 8. The Control group and Model group received no medication and were given tap water; the other groups were administered intragastrically with 1 mg/kg, 3 mg/kg, 9 mg/kg, and SASP (Sulfasalazine or Salicylazosulfapyridine) 500 mg/kg, respectively. On Day 15, blood and colon samples were collected, colon length was measured, and a 1-2 cm segment of the colon was fixed with formaldehyde.\nas §1, §2, §3, §4\nThe fence function of Occludin separates the apical and basolateral sides of the epithelial cell plasma membrane, restricting the free flow of lipids on the cell membrane, facilitating the formation of cell polarity, maintaining the impermeability and rigidity of the intestinal mucosa, and preventing the entry of pathogenic microorganisms. The barrier function of Occludin can regulate the transport of small molecules and maintain tissue homeostasis. […]"}}}
{"smiles": "CCc1cc(/C(C)=N/OCc2ccc(-c3ccccc3)c(C)c2)ccc1CN1CC[C@H](C(=O)O)C1", "note": "[Compound 30]", "values": [{"measurement": "body weight during administration", "setting": "BALB/c mice [1]; 30 1 mg/kg", "value": "remained relatively stable during administration"}, {"measurement": "body weight during administration", "setting": "BALB/c mice [1]; 30 3 mg/kg", "value": "remained relatively stable during administration"}, {"measurement": "body weight change rate", "setting": "BALB/c mice [1]; 30 3 mg/kg, before and after administration, vs model group", "value": "significantly increased"}, {"measurement": "total DAI scores of the administration for 14 days", "setting": "BALB/c mice [1]; 30 3 mg/kg, vs model group", "value": "significantly lower"}, {"measurement": "colon pathological changes (H&E staining)", "setting": "BALB/c mice [1]; 30 at 1 mg/kg", "value": "no obvious inflammatory cell infiltration was observed"}, {"measurement": "colon pathological changes (H&E staining)", "setting": "BALB/c mice [1]; 30 at 3 mg/kg", "value": "no obvious inflammatory cell infiltration was observed"}, {"measurement": "daily DAI score", "setting": "BALB/c mice [1]; 30 treatment group, SASP 500 mg/kg, vs model group", "value": "decreased more rapidly"}, {"measurement": "body weight recovery", "setting": "BALB/c mice [1]; 30 treatment groups (1, 3, 9 mg/kg), SASP 500 mg/kg, vs model group", "value": "recovered rapidly and increased substantially"}, {"measurement": "colon length", "setting": "BALB/c mice [1]; Compound 30 3 mg/kg, vs Model group", "value": "significantly inhibited DSS-induced colon shortening"}, {"measurement": "colon length", "setting": "BALB/c mice [1]; Compound 30 9 mg/kg, vs Model group", "value": "significantly inhibited DSS-induced colon shortening"}, {"measurement": "Occludin expression in colonic mucosa (immunohistochemistry)", "setting": "BALB/c mice [1]; vs Model group", "value": "the expression of Occludin was increased"}, {"measurement": "survival rate", "setting": "BALB/c mice [2]; 30 1 mg/kg intragastric from Day 8", "value": 87.5, "unit": "%"}, {"measurement": "colon length", "setting": "BALB/c mice [2]; 30 1 mg/kg, p<0.05 vs Model group", "value": "significantly inhibited DSS-induced colon shortening"}, {"measurement": "survival rate", "setting": "BALB/c mice [2]; 30 3 mg/kg intragastric from Day 8", "value": 87.5, "unit": "%"}, {"measurement": "colon length", "setting": "BALB/c mice [2]; 30 3 mg/kg, p<0.01 vs Model group", "value": "significantly inhibited DSS-induced colon shortening"}, {"measurement": "total DAI scores over 14 days", "setting": "BALB/c mice [2]; 30 3 mg/kg, vs model group", "value": "significantly lower"}, {"measurement": "survival rate", "setting": "BALB/c mice [2]; 30 9 mg/kg intragastric from Day 8", "value": 75, "unit": "%"}, {"measurement": "body weight recovery", "setting": "BALB/c mice [2]; 30 at 3 mg/kg, SASP at 500 mg/kg, vs model group", "value": "faster body weight recovery with a greater rebound amplitude"}, {"measurement": "colon pathological changes (H&E staining)", "setting": "BALB/c mice [2]; 30 at 9 mg/kg", "value": "obvious inflammatory cell infiltration and reduced goblet cells"}, {"measurement": "daily DAI score", "setting": "BALB/c mice [2]; 30 treatment groups, SASP 500 mg/kg, vs model group", "value": "decreased more rapidly"}, {"measurement": "colon pathological changes (H&E staining)", "setting": "BALB/c mice [2]; Compound 30 1 mg/kg", "value": "no obvious inflammatory cell infiltration was observed"}, {"measurement": "colon pathological changes (H&E staining)", "setting": "BALB/c mice [2]; Compound 30 3 mg/kg", "value": "no obvious inflammatory cell infiltration was observed"}, {"measurement": "Occludin expression in colonic mucosa (immunohistochemistry)", "setting": "BALB/c mice [2]; vs Model group", "value": "the expression of Occludin was increased"}, {"measurement": "Occludin protein in colon (Western blotting)", "setting": "BALB/c mice [2]; vs Model group", "value": "increase the expression of Occludin"}]}
